Test results from patent US20050004007A1, “Promotion of adoptosis in cancer cells by co-administration of cyclin dependent kinase inhibitiors and cellular differentiation agents” (priority 2000, published 2005).

Columns and labels:
Format in all cases: cell-based, human
U937 cells [1] = test: CD11b surface differentiation marker expression (flow cytometry); details: 1 mM SB, 100 nM FP, 48 h
Experimental: Differentiation studies. Expression of the monocytic differentiation marker, CD11b, was monitored by direct immunofluorescence staining and flow cytometric analysis as previously described [Freemerman et al. 1997]. Following drug treatment, suspension and adherent cells were enumerated by a Coulter Counter and 2×10^6 cells were pelleted by centrifugation. The supernatant was aspirated and the cells were resuspended in 300 μl of ice-cold PBS. Two 100 μl aliquots from each sample were then combined with either phycoerythrin-1 (10 μl) or the IgG control. Samples were incubated for 20 min at 4° C. and diluted in PBS (1 ml). Sample data were collected using a Becton Dickinson FACScan flow cytometer and analyzed with Verity Winlist Software (Verity; Topsham, Me.). […] U937 cells were transfected with a full-length p21^WAF1/CIP1 promoter (base pairs 1-2326) as described by Chinery et al. [Chinery et al. 1997] utilizing electroporation (Eppendorf Multiporator, 620V, 60 μs) in hypoosmolar buffer. In each experiment, pSV-βgal (Promega), containing the β-galactosidase gene under the control of the constitutively active SV40 promoter and enhancer, was co-transfected with the luciferase reporter at a ratio of 1:5 (w/w) to normalize for transfection efficiency. The cells were incubated overnight in complete media and treated with 10 nM PMA, 100 nM FP, or 10 nM PMA/100 nM FP for 3 or 6 h. At indicated times, cells were washed in serum-free media, resuspended in 0.25M Tris-HCl pH 7.8, lysed by rapid freeze-thaw, centrifuged and the supernatant frozen at −70° C. Lysates (20 μL) were mixed with luciferase assay reagent (100 μL) and monitored for 20 seconds in a luminometer (Monolight 2010). For β-galactosidase activity, lysates (50 μL) were mixed in triplicate with an equal volume of […] assay buffer (2×) in a 96-well plate and incubated overnight. The reaction was terminated by addition of NaCO3 and absorbance was measured at 405 nm in a Vmax plate reader (Molecular Devices). Activity was determined by comparison to a standard curve. […]

U937 cells [2] = test: cell cycle analysis (propidium iodide, flow cytometry)
Experimental: Cell Cycle Analysis. Following drug treatment, cells were pelleted by centrifugation at 500 g×6 min, and resuspended in 70% ethanol. The cells were incubated on ice for at least 1 h and resuspended in 1 ml cell cycle buffer (0.38 mM Na-Citrate, 0.5 mg/ml RNase A, and 0.01 mg/ml propidium iodide) at a concentration of 10×10^5 cells/ml, stored in the dark at 4 C until analysis (24 h), using a Becton-Dickinson FACScan flow cytometer and Verity Winlist software (Verity Software, Topsham, Me.).

pRb = test: Western analysis of underphosphorylated pRb in U937 cells; details: for levels of underphosphorylated pRb: FP 100 nM, SB 1 mM, 12 or 24 hr
Experimental: Western analysis. Equal quantities of protein (15 μg/condition for MAPK, 40 μg/condition for cytochrome c, or 25 μg/condition) were separated by SDS-PAGE [underphosporylated pRB (7.5%), poly(ADP-ribose)polymerase or PARP (8.0%), p44/p42 MAPK (10%), p21, p27, procaspase 3 (12%), and cytochrome c (15%)] and electroblotted onto nitrocellulose. Western analysis of p44/p42 MAPK protein was performed according to the manufacturer's instructions (New England Biolabs); otherwise, studies were performed as previously described [Wang et al, 1998]. Briefly, U937 cells (5×10^6) were pelleted by centrifugation, resuspended in 50 μl PBS, lysed by the addition of 2× Laemmli buffer and boiled for 5 min. Proteins were quantified with Coomassie protein assay reagent. Blots were blocked in PBS-T/5% milk, washed twice with PBS-T, and incubated overnight at 4° C. with the appropriate primary antibody. The blots were washed with PBS-T and incubated with a horseradish-peroxidase conjugated secondary antibody diluted appropriately in PBS-T/5% mill. Following incubation, blots were developed by enhanced chemiluminescence exposure to Kodak X-OMAT film (Eastman Kodak Co., Rochester, N.Y.) and reprobed with antibodies directed against actin to control for equal loading of protein.
(§1) Alternatively, whole cell-pellets were washed twice in PBS, resuspended in PBS, and lysed by the addition of I volume of loading buffer. Lysates were boiled for 10 min, centrifuged at 12,800 g for 5 min and quantified using Coomassie protein assay reagent (Pierce, Rockfold, Ill.). 25 μg of total proteins per point were separated by SDS-PAGE and electro-blotted to nitrocellulose. The blots were blocked in 5% non-fat milk in PBS-T and probed for 1 h with the appropriate dilution of primary antibody. Blots were washed 3×10 min in PBS-T and then incubated with a 1:2000 dilution of peroxidase-conjugated secondary antibody for 1 h at room temperature. Blots were again washed 3×10 min in PBS-T and then developed by enhanced chemiluminesence. Where indicated, blots were stripped and re-probed with antibodies directed against actin.
(§2) Primary antibodies for both p21^WAF1/CIP1 and p27^KIP1 (Transduction Laboratories, Lexington, Ky.) were used in a 1:1000 dilution; PARP (1:1000; Oncogene Research Products, Cambridge, Mass.); pro-caspase 3 (1:1000; Transduction Laboratories); cytochrome c (1:2000; Pharmingen); bcl-2 (1:2000; DAKO, Denmark); bax (1:1000; Santa Cruz Biotechnology, Inc., Santa Cruz, Calif.); bid (1:1000; Cell Signaling, Beverly, Mass.); XIAP (1:1000; Cell Signaling); Mcl-1 (1:1000; Pharmingen); bak (1:1000; Calbiochem); c-Myc (1:1000; Pharmingen, San Diego, Calif.); actin (1:2000; Sigma Chemicals, St. Louis, Mo.); cyclins-D1, -A and -E (1:1000; Pharmingen); pRb, underP-pRb, pRb-CDK2 and pRb-CDK4 (all 1:1000; Pharmingen); Ac-H3 and Ac-H4 (both 1:1000; Upstate Biotechnology, Lake Placid, N.Y.); E2F-1 (Upstate Biotechnology). Secondary antibodies conjugated to horseradish peroxidase were obtained from Kirkegaard and Perry Laboratories, Inc. (Gaithersburg, Md.). Coomassie protein assay reagent was purchased from Pierce (Rockford, Ill.), and an enhanced chemiluminescence kit was obtained from New England Nuclear (Boston, Mass.). The pan-caspase inhibitor BOC-D-fmk and the caspase 8 inhibitor Z-IETD-fmk were purchased from Enzyme System Products (Livermore, Calif.) All other chemicals or reagents were purchased from Sigma.

Bcl-2 = test: Western analysis of Bcl-2 cleavage in U937 cells; details: SB 1 mM, FP 100 nM, 12 and 24 hr
Experimental: as §1, with “actin. […]” for “actin.”

Mcl-1 = test: Western analysis of Mcl-1 in U937 cells; details: 100 nM FP, 1 mM SB, 12 and 24 hours
Experimental: as §1, with “actin. […]” for “actin.”

cyclin D1 = test: Western analysis of cyclin D1 in U937 cells
Experimental: as §1
as §2, with “The pan-caspase inhibitor BOC-D-fmk and the caspase 8 inhibitor Z-IETD-fmk were purchased from Enzyme System Products (Livermore, Calif.) All other chemicals or reagents were purchased from Sigma.” left out

Row | SMILES | expression of the differentiation marker CD11b (U937 cells [1]) | percentage of cells arresting in G0/G1 (U937 cells [2]; 24 h, 1 mM SB) [%] | percentage of cells arresting in G0/G1 (U937 cells [2]; 48 h, 1 mM SB or 100 nM FP) [%] | levels of underphosphorylated pRb (pRb) | cleavage of Bcl-2 (rapidly migrating species) (Bcl-2) | levels of Mcl-1 (Mcl-1) | cyclin D1 protein (cyclin D1; SB 1 mM 24 hours, FP and SB 12 hours) | cell cycle distribution (U937 cells [2]; 24 h after administration of SAHA, FP or both) | full-length underphosphorylated pRb (pRb; 10 nM PMA, FP 50, 80 or 100 nM, 24 h) | FP concentration at which reduction in cyclin D1 levels was first observed (cyclin D1; 12 and 24 hours treatment) [nM] | FP concentration at which reduction in cyclin D1 levels was virtually complete (cyclin D1; 12 and 24 hours treatment) [nM]
1 | CCCC(=O)[O-].[Na+] [SB, sodium butyrate] | increased expression of the differentiation marker CD11b | 48.1 | 81.6 | substantial increase | faintly discerned | minimal effects | moderate decrease | – | – | – | –
2 | CN1CC[C@H](c2c(O)cc(O)c3c(=O)cc(-c4ccccc4Cl)oc23)[C@H](O)C1 [FP, Flavopiridol] | not accompanied by an increase in CD11b expression | – | ~53 | did not affect | faintly discerned | reductions in levels of Mcl-1 | – | increase in the G0/G1 population | minimal effect | 100 | 300
